Test results reported in US12533362B2, “Methods for treating diseases associated with ciliopathies” (ALEXION PHARMACEUTICALS, INC., priority 2017, dated 2026).

Tests used:
[1] = tested on: NPHP patient-derived cells; experiment: automated cilia-based ciliogenesis assay in NPHP patient-derived cells; assay type: cell-based, human; details: for effect on ciliogenesis (percentage of ciliated cells) as compared with DMSO: drug screening, various tested concentrations, FIG. 5 / FIG. 6; for restoration of ciliogenesis at the highest concentration: 40 μM dinoprostone and 20 μM dmPGE2, may be due to cytotoxicity; for ciliogenesis restorative effect: FIG. 11A
Description: (§1) To identify compounds for treating diseases associated with ciliopathies such as, for example, NPHP, NPHP patient-derived cells were obtained and cell lines were established. Briefly, peeled renal epithelial cells, which are mostly proximal tubule cells (tbc) recovered from urine of NPHP1-deficient patients, were immortalized by retroviral gene transfer of SV40 T antigen. Cells were fixed and fluorescence-labeled with Hoechst (for nuclei staining), anti-γ-tubulin antibody (for basal bodies staining), and anti-ARL13B antibody (for cilia staining) for detection using immunofluorescence microscopy.
(§2) Briefly, NPHP patient-derived cells and control cells were cultured in complete media, at 39C (non-permissive temperature for SV40 expression), followed by automatic cilia analysis using immunofluorescence microscopy to measure ciliogenesis, e.g., in terms of % cilia. A spinning disk platform may be used for drug screening (FIG. 5, A-J) and ciliogenesis analysis of G3 multi-OMICs dataset (FIG. 29, A-E).
(§3) The cilia-based assay described above may be used to identify compounds that restore ciliogenesis. […] Automated random acquisition of 35 images per well may be performed, for example. Each image may have z-stack of 10 images taken at <1 μm intervals.

[2] = tested on: Nphp1−/− mice; experiment: retinal degeneration in Nphp1−/− mouse model; assay type: in vivo
Protocol: Homozygous deletion of NPHP1 is the most common cause of juvenile nephronophthisis 1. Homozygous or compound heterozygous mutations in NPHP1 are also associated with, for example, Joubert syndrome 4 (brain abnormalities) and Senior-Løken syndrome 1 (retinopathy). NPHP1 KO animals were generated to test whether taprenepag can be used to treat these diseases. To establish a CRISPR/Cas9-engineered Nphp1^−/− mouse model, single guide RNAs were injected in C57BL/6J embryos, and generated a 76 bp deletion encompassing the ATG in exon 1 of Nphp1. To characterize the natural history of Nphp1^−/− mouse model, histochemical staining of kidney and retina sections was performed from Nphp1^+/+ and Nphp1^−/− mice.
To evaluate the retinal degeneration, a semi-automated tool was developed to provide detection and quantitative thickness measurements of each retinal layers at five distant plans manually marked on the retinal section (FIG. 38B). Semi-automated quantification analysis confirms a clear decrease in thickness of photoreceptors layers ONL, IS and OS (FIG. 38C).
To assess the effect of Nphp1 deletion on the structural organization of photoreceptors in this model, immunohistochemistry (IH) analysis was performed on retina sections from Nphp1^+/+ and Nphp1^−/− mice (FIGS. 39A and B). Tissues were fixed and fluorescence-labeled with DAPI (for nuclei staining), anti-rhodopsin antibody (for OS staining), and anti-Cep290 antibody (for connecting cilia staining) or PNA (for OS and IS staining), detected using immunofluorescence microscopy.
To assess the effect of Nphp1 deletion on the functionality of photoreceptors, electroretinogram (ERG) was performed on Nphp1^+/+ and Nphp1^−/− mice, under light stimuli of different intensities (FIGS. 40A-C). FIGS. 40A and B show ERG a- and b-waves recorded from the same animals at P21, for a given light intensity. In contrast with Nphp1^+/+ mice, Nphp1^−/− mice display drastically lower ERG amplitudes at a given intensity of light stimulus. […]

[3] = tested on: zebrafish NPHP4 MO; experiment: zebrafish NPHP4 morpholino (MO) model; assay type: in vivo
Protocol: Briefly, wild-type Tg(wt1b:GFP) transgenic zebrafish embryos were injected with morpholino (e.g., nphp4 ATG MO) at one-cell stage. At 8 hours post-fertilization (hpf), injected embryos were treated with drug or vehicle in PTU-egg water (1 mL in 12-well plates). At 24 hpf, drug treatment was renewed, and pronase was added at 36 hpf for chorion removal.

[4] = pharmacokinetics study in wild type mice; details: intraperitoneal; taprenepag isopropyl 1 mg/kg or 8 mg/kg, taprenepag 8 mg/kg; different time points
Protocol: After intraperitoneal injections of taprenepag isopropyl (1 mg/kg or 8 mg/kg) or taprenepag (8 mg/kg), the concentrations of these compounds in various organs were determined at different time points.

[5] = biological target: EP4 receptor (Homo sapiens, UniProt P35408); details: cited from earlier work
EP4 receptor, sequence (P35408 whole entry): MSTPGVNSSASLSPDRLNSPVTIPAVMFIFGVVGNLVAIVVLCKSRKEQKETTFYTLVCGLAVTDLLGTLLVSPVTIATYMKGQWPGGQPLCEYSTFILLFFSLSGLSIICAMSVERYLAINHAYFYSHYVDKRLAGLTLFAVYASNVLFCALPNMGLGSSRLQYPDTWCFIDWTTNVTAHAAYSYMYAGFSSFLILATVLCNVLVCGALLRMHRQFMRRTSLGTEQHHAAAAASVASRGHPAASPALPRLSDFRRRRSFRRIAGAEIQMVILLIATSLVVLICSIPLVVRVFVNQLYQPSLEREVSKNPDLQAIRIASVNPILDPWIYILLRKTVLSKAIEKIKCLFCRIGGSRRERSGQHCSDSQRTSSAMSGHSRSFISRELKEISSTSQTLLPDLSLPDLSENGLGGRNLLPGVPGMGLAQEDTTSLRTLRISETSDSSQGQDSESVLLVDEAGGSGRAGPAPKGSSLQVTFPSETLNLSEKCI

[6] = tested on: control cells; experiment: exogenous PGE2 effect on cilia in control cells; assay type: cell-based; details: addition of exogenous PGE2, FIG. 12
[7] = tested on: control normal epithelial cells; experiment: automated cilia-based ciliogenesis assay in control normal epithelial cells; assay type: cell-based, human; details: control normal cells, FIG. 11A
Description: as §1, §2
as §3, with “intervals. Consecutive imaging of nucleus (Hoechst at 461 nm), basal body (γ-tubulin at 555 nm) and cilia (ARL13b at 647 nm) may be obtained.” for “intervals.”

[8] = meta-analysis, multiple NPHP patient-derived cell lines

With `O=C(O)COc1cccc(CN(Cc2ccc(-n3cccn3)cc2)S(=O)(=O)c2cccnc2)c1` [CP-544326, taprenepag] the “ciliogenesis, dose response compared to DMSO” value ([1]; FIG. 16B) was “restores ciliogenesis in a dose-dependent manner”, the “ciliogenesis as compared with DMSO” value ([1]; cell lines 1-09-P, 1-06-P1 and 1-06-P2 derived from NPHP1(del) patients, FIG. 17C) was “increases ciliogenesis in multiple cell lines” and the “ciliogenesis, meta-analysis” value ([1]; compared with alprostadil, FIG. 16A) was “restores ciliogenesis to a similar level as alprostadil”. The “linear regression pooled slope value of effect on ciliogenesis” value [1, 8] was 1.36, the “linear regression range of slope values of effect on ciliogenesis” value [1, 8] was 1.245 to 1.532 and the EC50 ([1]; semi-log representation of ciliogenesis titration, FIG. 16C, read-out: EC50 for EP2 from CP-544326 titration) was 11 nM. For the same compound, the “ONL/OPL retina layers thicknesses ratio” value ([2]; 18 mg/kg i.p. every 3 or 4 days from P6 until P21, vs vehicle, p<0.05 Mann-Whitney test) was “significantly prevents the decrease of ONL/OPL ratio”, the “rhodopsin mislocalization (Mean Green intensity in ONL)” value ([2]; 18 mg/kg i.p., vs vehicle, p<0.05 unpaired t-test) was “significantly prevented rhodopsin mislocalization” and the “electroretinogram a-wave amplitude of photoreceptor response” value ([2]; 18 mg/kg i.p., vs vehicle-treated Nphp1−/− mice) was “slight improvement in the amplitude of photoreceptor response”. The “% severe, mild and normal pronephric cysts” value ([3]; 100 nM vs DMSO, p<0.01 Fischer's exact test) was “significantly reduces % severe pronephric cysts and increases % mild and normal pronephric cysts” and the “stability in vivo (concentrations in plasma, kidney, testis, retina, vitreous humor)” value [4] was “more stable than taprenepag isopropyl”.

In the case of `Cc1cccc([C@@H](C)[C@H](O)/C=C/[C@@H]2[C@@H]3[C@H](C[C@H]2O)O/C(=C\CCCc2nnn[nH]2)C3(F)F)c1` [KAG-308], the “EP4 agonist potency” value [5] is given as “low nanomolar EP4-agonist”.

In the case of `O=C1CC[C@H](/C=C/[C@@H](O)C(F)(F)c2ccccc2)N1CCCCCCc1nnn[nH]1` [L902,688], the effect on ciliogenesis ([1]; prostanoid EP4 agonist, FIG. 17A) is reported as “does not significantly affect ciliogenesis”.

With `COc1ccc(C2CC(c3ccccc3)=NN2c2ccc(S(N)(=O)=O)cc2)cc1` (stereo not drawn) [ML-141] the “effect on ciliogenesis (percentage of ciliated cells) as compared with DMSO” value [1] was “did not have a significant effect on ciliogenesis”.

With `CCCCC[C@H](O)/C=C/[C@H]1[C@H](O)CC(=O)[C@@H]1C/C=C\CCCC(=O)O` [dinoprostone, prostaglandin E2] the “restoration of ciliogenesis at the highest concentration” value [1] was “slight decrease in restoration of ciliogenesis”, the ciliogenesis restorative effect [1] was “ciliogenesis restorative effects similar to that of alprostadil” and the “% severe, mild and normal pronephric cysts” value ([3]; 50 μM vs DMSO, p<0.008 Fischer's exact test) was “significantly reduced % severe and mild pronephric cysts and increased % normal pronephric cysts”. The “% normal body axis curvature” value ([3]; 50 μM vs DMSO, p=0.0066 Fischer's exact test) was “significantly increases % normal body axis curvature”, the dorsal curvature ([3]; 50 μM vs DMSO, p=0.0577 t-test) was “did not significantly affect dorsal curvature” and the “cilia length and percentages of ciliated cells” value [6] was “increased both cilia length and percentages of ciliated cells”. The effect on ciliogenesis [7] was “no significant effect was observed”.

With `CCCCC(C)(C)[C@H](O)/C=C/[C@H]1[C@H](O)CC(=O)[C@@H]1C/C=C\CCCC(=O)O` [dmPGE2, 16,16-dimethyl-PGE2] the “restoration of ciliogenesis at the highest concentration” value [1] was “slight decrease in restoration of ciliogenesis”, the ciliogenesis restorative effect [1] was “ciliogenesis restorative effects similar to that of alprostadil” and the effect on ciliogenesis [7] was “no significant effect was observed”.

With `CCN(CC)C(C)CN1c2ccccc2Sc2ccccc21` (stereo not drawn) [ethopropazine] the “effect on ciliogenesis (percentage of ciliated cells) as compared with DMSO” value [1] was “did not have a significant effect on ciliogenesis”.

For `O=C1c2c(O)ccc(O)c2C(=O)c2c(NCCNCCO)ccc(NCCNCCO)c21` [mitoxantrone], the “effect on ciliogenesis (percentage of ciliated cells) as compared with DMSO” value [1] was “did not have a significant effect on ciliogenesis”.

With `CC(=O)O[C@H]1C(=O)[C@@]2(C)[C@H]([C@H](OC(=O)c3ccccc3)[C@]3(O)C[C@H](OC(=O)[C@H](O)[C@@H](NC(=O)c4ccccc4)c4ccccc4)C(C)=C1C3(C)C)[C@]1(OC(C)=O)CO[C@@H]1C[C@@H]2O` [paclitaxel] the “effect on ciliogenesis (percentage of ciliated cells) as compared with DMSO” value [1] was “did not have a significant effect on ciliogenesis”.

For `CN(C)CCC(c1ccccc1)c1ccccn1` (stereo not drawn) [pheniramine], the “effect on ciliogenesis (percentage of ciliated cells) as compared with DMSO” value [1] was “did not have a significant effect on ciliogenesis”.

With `CN1[C@@H]2CC[C@H]1C[C@@H](OC(=O)c1c[nH]c3ccccc13)C2` [tropisetron] the “effect on ciliogenesis (percentage of ciliated cells) as compared with DMSO” value [1] was “did not have a significant effect on ciliogenesis”.

In the case of `COc1ccc(CCN(C)CCCC(C#N)(c2ccc(OC)c(OC)c2)C(C)C)cc1OC` (stereo not drawn) [verapamil], the “effect on ciliogenesis (percentage of ciliated cells) as compared with DMSO” value [1] is reported as “did not have a significant effect on ciliogenesis”.
